Experimental data taken from PubChem BioAssay AID1918937 (Molecular Pharmacology Branch, DTP, NCI, 2023).
“And” between values parts separate entries of the source, which are not always exact repeats. Equal values may be shown once.

Test system: 521955-158-R2-J5-PDC complex spheroid viability
Assay: Anticancer human tumor 521955-158-R2-J5-PDC patient-derived pancreatic carcinoma cell line growth inhibition
Conditions: for viability, T/C: stronger effect = lower value
Procedure, shortened: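 Complex spheroids of tumor cells with HUVEC and human MSCs, exposed to iadademstat combined with other agents. Each agent tested in half-log steps from near clinical Cmax (else 10 microM top), DMSO ≤0.25%.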

[1] = curve of first compound, second compound 0.1 µM
[2] = curve of first compound, second compound 0.316 µM
[3] = curve of first compound, second compound 1 µM
[4] = curve of first compound, second compound 3.16 µM
[5] = curve of first compound, second compound 10 µM
[6] = second compound 0.1 µM, first compound 0.0316 µM
[7] = second compound 0.1 µM, first compound 0.1 µM
[8] = second compound 0.1 µM, first compound 0.316 µM
[9] = second compound 0.1 µM, first compound 1 µM
[10] = second compound 0.1 µM, first compound 3.16 µM
[11] = second compound 0.1 µM, first compound 10 µM
[12] = second compound 0.316 µM, first compound 0.0316 µM
[13] = second compound 0.316 µM, first compound 0.1 µM
[14] = second compound 0.316 µM, first compound 0.316 µM
[15] = second compound 0.316 µM, first compound 1 µM
[16] = second compound 0.316 µM, first compound 3.16 µM
[17] = second compound 0.316 µM, first compound 10 µM
[18] = second compound 1 µM, first compound 0.0316 µM
[19] = second compound 1 µM, first compound 0.1 µM
[20] = second compound 1 µM, first compound 0.316 µM
[21] = second compound 1 µM, first compound 1 µM
[22] = second compound 1 µM, first compound 3.16 µM
[23] = second compound 1 µM, first compound 10 µM
[24] = second compound 3.16 µM, first compound 0.0316 µM
[25] = second compound 3.16 µM, first compound 0.1 µM
[26] = second compound 3.16 µM, first compound 0.316 µM
[27] = second compound 3.16 µM, first compound 1 µM
[28] = second compound 3.16 µM, first compound 3.16 µM
[29] = second compound 3.16 µM, first compound 10 µM
[30] = second compound 10 µM, first compound 0.0316 µM
[31] = second compound 10 µM, first compound 0.1 µM
[32] = second compound 10 µM, first compound 0.316 µM
[33] = second compound 10 µM, first compound 1 µM
[34] = second compound 10 µM, first compound 3.16 µM
[35] = second compound 10 µM, first compound 10 µM
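Also: spheroids exposed to agents for seven days.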
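For viability, T/C in this document: percent of DMSO vehicle control luminescence viability.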

Structure (SMILES): O=C(c1cc(Cc2n[nH]c(=O)c3ccccc23)ccc1F)N1CCN(C(=O)C2CC2)CC1 + NC1CC1c1ccc(-c2cccc(O)c2)cc1
- IC50 [1]: > 10 µM
- IC50 [2]: > 10 µM
- IC50 [3]: > 10 µM
- IC50 [4]: > 10 µM
- IC50 [5]: > 10 µM
- viability, T/C [6]: 80.9%
- viability, T/C [7]: 87.5%
- viability, T/C [8]: 88.4%
- viability, T/C [9]: 87.4%
- viability, T/C [10]: 81.5%
- viability, T/C [11]: 69.1%
- viability, T/C [12]: 90.5%
- viability, T/C [13]: 82.3%
- viability, T/C [14]: 89.1%
- viability, T/C [15]: 74.7%
- viability, T/C [16]: 74.6%
- viability, T/C [17]: 66.2%
- viability, T/C [18]: 77.9%
- viability, T/C [19]: 79.7%
- viability, T/C [20]: 79.7%
- viability, T/C [21]: 77.1%
- viability, T/C [22]: 67%
- viability, T/C [23]: 59.5%
- viability, T/C [24]: 81.8%
- viability, T/C [25]: 82.2%
- viability, T/C [26]: 83.3%
- viability, T/C [27]: 75.6%
- viability, T/C [28]: 69.1%
- viability, T/C [29]: 55.8%
- viability, T/C [30]: 87.7%
- viability, T/C [31]: 84.9%
- viability, T/C [32]: 83.4%
- viability, T/C [33]: 78.4%
- viability, T/C [34]: 68.1%
- viability, T/C [35]: 55.7%

Structure (SMILES): NC1CCC(NC2CC2c2ccccc2)CC1 (stereo unspecified)
- viability, T/C (compound 0.316 µM): 92.2% [middle of 4 runs]
- IC50 (compound alone, run of 02/15/2022): > 10 µM

Structure (SMILES): CC1(C)CCC(CN2CCN(c3ccc(C(=O)NS(=O)(=O)c4ccc(NCC5CCOCC5)c([N+](=O)[O-])c4)c(Oc4cnc5[nH]ccc5c4)c3)CC2)=C(c2ccc(Cl)cc2)C1
- viability, T/C (compound 0.0316 µM): 103% and 110%
- viability, T/C (compound 0.1 µM): 112% and 110%
- viability, T/C (compound 0.316 µM): 107% and 115%
- viability, T/C (compound 1 µM): 103% and 111%
- viability, T/C (compound 3.16 µM): 62% and 73.6%
- viability, T/C (compound 10 µM): 0.69% and 0.97%
- IC50 (curve of compound): 3.96 µM and 4.6 µM

Structure (SMILES): Nc1ncn(C2CC(O)C(CO)S2)c(=O)n1 (stereo unspecified) + NC1CC1c1ccc(-c2cccc(O)c2)cc1
- IC50 [1]: > 0.3 µM
- IC50 [2]: > 0.3 µM
- IC50 [3]: > 0.3 µM
- IC50 [4]: > 0.3 µM
- IC50 [5]: > 0.3 µM
- viability, T/C (second compound 0.1 µM, first compound 0.000949 µM): 90.7%
- viability, T/C (second compound 0.1 µM, first compound 0.003 µM): 96.2%
- viability, T/C (second compound 0.1 µM, first compound 0.00949 µM): 90.1%
- viability, T/C (second compound 0.1 µM, first compound 0.03 µM): 98%
- viability, T/C (second compound 0.1 µM, first compound 0.0949 µM): 85.2%
- viability, T/C (second compound 0.1 µM, first compound 0.3 µM): 64.7%
- viability, T/C (second compound 0.316 µM, first compound 0.000949 µM): 98.7%
- viability, T/C (second compound 0.316 µM, first compound 0.003 µM): 94.3%
- viability, T/C (second compound 0.316 µM, first compound 0.00949 µM): 93.1%
- viability, T/C (second compound 0.316 µM, first compound 0.03 µM): 89.5%
- viability, T/C (second compound 0.316 µM, first compound 0.0949 µM): 76.6%
- viability, T/C (second compound 0.316 µM, first compound 0.3 µM): 69.2%
- viability, T/C (second compound 1 µM, first compound 0.000949 µM): 98.4%
- viability, T/C (second compound 1 µM, first compound 0.003 µM): 90%
- viability, T/C (second compound 1 µM, first compound 0.00949 µM): 94%
- viability, T/C (second compound 1 µM, first compound 0.03 µM): 88.8%
- viability, T/C (second compound 1 µM, first compound 0.0949 µM): 90%
- viability, T/C (second compound 1 µM, first compound 0.3 µM): 75.3%
- viability, T/C (second compound 3.16 µM, first compound 0.000949 µM): 98.5%
- viability, T/C (second compound 3.16 µM, first compound 0.003 µM): 101%
- viability, T/C (second compound 3.16 µM, first compound 0.00949 µM): 92.7%
- viability, T/C (second compound 3.16 µM, first compound 0.03 µM): 91%
- viability, T/C (second compound 3.16 µM, first compound 0.0949 µM): 87.6%
- viability, T/C (second compound 3.16 µM, first compound 0.3 µM): 69.9%
- viability, T/C (second compound 10 µM, first compound 0.000949 µM): 99%
- viability, T/C (second compound 10 µM, first compound 0.003 µM): 105%
- viability, T/C (second compound 10 µM, first compound 0.00949 µM): 100%
- viability, T/C (second compound 10 µM, first compound 0.03 µM): 97.3%
- viability, T/C (second compound 10 µM, first compound 0.0949 µM): 90.3%
- viability, T/C (second compound 10 µM, first compound 0.3 µM): 71.8%

Structure (SMILES): O=C(c1cc(Cc2n[nH]c(=O)c3ccccc23)ccc1F)N1CCN(C(=O)C2CC2)CC1 + NC1CCC(NC2CC2c2ccccc2)CC1
- IC50 [1]: > 10 µM
- IC50 [2]: > 10 µM
- IC50 [3]: > 10 µM
- IC50 [4]: > 10 µM
- IC50 [5]: > 10 µM
- viability, T/C [6]: 109%
- viability, T/C [7]: 107%
- viability, T/C [8]: 100%
- viability, T/C [9]: 98.6%
- viability, T/C [10]: 89.3%
- viability, T/C [11]: 56.6%
- viability, T/C [12]: 106%
- viability, T/C [13]: 108%
- viability, T/C [14]: 103%
- viability, T/C [15]: 102%
- viability, T/C [16]: 89%
- viability, T/C [17]: 57.8%
- viability, T/C [18]: 97.9%
- viability, T/C [19]: 99.6%
- viability, T/C [20]: 99.4%
- viability, T/C [21]: 94.8%
- viability, T/C [22]: 97.1%
- viability, T/C [23]: 54.9%
- viability, T/C [24]: 98.4%
- viability, T/C [25]: 101%
- viability, T/C [26]: 99.6%
- viability, T/C [27]: 102%
- viability, T/C [28]: 86.8%
- viability, T/C [29]: 59.5%
- viability, T/C [30]: 102%
- viability, T/C [31]: 105%
- viability, T/C [32]: 99%
- viability, T/C [33]: 95.3%
- viability, T/C [34]: 81.9%
- viability, T/C [35]: 55.9%

Structure (SMILES): CC(C)CC(NC(=O)C(Cc1ccccc1)NC(=O)c1cnccn1)B(O)O (stereo unspecified)
- viability, T/C (compound 0.000316 µM): 79.9% and 91.8%
- viability, T/C (compound 0.001 µM): 0.42% and 0.86%
- viability, T/C (compound 0.00316 µM): 0.29% and 0.43%
- viability, T/C (compound 0.01 µM): 0.18% and 0.38%
- viability, T/C (compound 0.0316 µM): 0.31% and 0.4%
- viability, T/C (compound 0.1 µM): 0.21% and 0.45%
- IC50 (curve of compound): 0.000488 µM and 0.000537 µM

Structure (SMILES): Cn1ncnc1C1c2n[nH]c(=O)c3cc(F)cc(c23)NC1c1ccc(F)cc1 (stereo unspecified) + NC1CC1c1ccc(-c2cccc(O)c2)cc1
- IC50 [1]: > 0.1 µM
- IC50 [2]: > 0.1 µM
- IC50 [3]: > 0.1 µM
- IC50 [4]: > 0.1 µM
- IC50 [5]: > 0.1 µM
- viability, T/C (second compound 0.1 µM, first compound 0.000316 µM): 91.4%
- viability, T/C (second compound 0.1 µM, first compound 0.001 µM): 89.3%
- viability, T/C (second compound 0.1 µM, first compound 0.00316 µM): 92.2%
- viability, T/C (second compound 0.1 µM, first compound 0.01 µM): 80.4%
- viability, T/C [6]: 77.3%
- viability, T/C [7]: 76.2%
- viability, T/C (second compound 0.316 µM, first compound 0.000316 µM): 91.5%
- viability, T/C (second compound 0.316 µM, first compound 0.001 µM): 100%
- viability, T/C (second compound 0.316 µM, first compound 0.00316 µM): 92.9%
- viability, T/C (second compound 0.316 µM, first compound 0.01 µM): 88.8%
- viability, T/C [12]: 83%
- viability, T/C [13]: 78.9%
- viability, T/C (second compound 1 µM, first compound 0.000316 µM): 82%
- viability, T/C (second compound 1 µM, first compound 0.001 µM): 83.8%
- viability, T/C (second compound 1 µM, first compound 0.00316 µM): 93.1%
- viability, T/C (second compound 1 µM, first compound 0.01 µM): 91.8%
- viability, T/C [18]: 94.9%
- viability, T/C [19]: 81.1%
- viability, T/C (second compound 3.16 µM, first compound 0.000316 µM): 94.9%
- viability, T/C (second compound 3.16 µM, first compound 0.001 µM): 103%
- viability, T/C (second compound 3.16 µM, first compound 0.00316 µM): 101%
- viability, T/C (second compound 3.16 µM, first compound 0.01 µM): 95%
- viability, T/C [24]: 89%
- viability, T/C [25]: 84.5%
- viability, T/C (second compound 10 µM, first compound 0.000316 µM): 97.8%
- viability, T/C (second compound 10 µM, first compound 0.001 µM): 96.1%
- viability, T/C (second compound 10 µM, first compound 0.00316 µM): 108%
- viability, T/C (second compound 10 µM, first compound 0.01 µM): 94.4%
- viability, T/C [30]: 90.2%
- viability, T/C [31]: 87.7%
